Assay results: patent publication US9371294B2, “Cycloalkenyl aryl derivatives for CETP inhibitor” (CHONG KUN DANG PHARMACEUTICAL CORP., priority 2011, dated 2016)

Target: T1, cholesteryl ester transfer protein (Homo sapiens, UniProt P11597)
T1 construct: As a source of cholesteryl ester transfer protein, plasma from healthy humans was used; from tissue; host or cells: plasma from healthy humans
T1 sequence (P11597 18-493): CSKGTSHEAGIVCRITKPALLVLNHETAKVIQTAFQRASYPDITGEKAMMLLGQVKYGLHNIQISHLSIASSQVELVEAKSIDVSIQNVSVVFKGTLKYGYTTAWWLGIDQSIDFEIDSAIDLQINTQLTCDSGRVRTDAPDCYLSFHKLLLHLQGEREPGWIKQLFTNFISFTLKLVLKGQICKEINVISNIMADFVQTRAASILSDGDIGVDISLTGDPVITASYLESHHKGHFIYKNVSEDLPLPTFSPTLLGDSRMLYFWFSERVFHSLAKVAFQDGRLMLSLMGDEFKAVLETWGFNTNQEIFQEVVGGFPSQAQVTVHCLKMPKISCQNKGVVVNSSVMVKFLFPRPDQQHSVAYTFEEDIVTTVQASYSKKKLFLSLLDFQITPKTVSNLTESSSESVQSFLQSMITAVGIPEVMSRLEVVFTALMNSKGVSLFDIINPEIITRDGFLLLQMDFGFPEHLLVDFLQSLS
Test: In vitro test for the ability to inhibit cholesteryl ester transfer
Assay type: biochemical
Details: [3H]-cholesteryl oleate transfer from rHDL-agarose to LDL; human plasma as CETP source; 37° C.; 16-10000 nM, duplicate
From the text: In Vitro Test for the Ability to Inhibit Cholesteryl Ester Transfer
1. Preparation of Cholesteryl Ester Donor
In order to prepare a cholesteryl ester donor to be used in the test, a radiolabeled recombinant HDL containing [^3H]-cholesteryl oleate (GE healthcare, TRK886, 3.5 μCi/mg of apoA-1) and apoA-1 was synthesized. Then, rHDL-agarose obtained by immobilizing the recombinant HDL with CNBr-activated Sepharose 4B resin (Amersham Biosciences, Sweden) was used in the test.
2. Cholesteryl Ester Transfer Test
As a source of cholesteryl ester transfer protein, plasma from healthy humans was used, and as cholesteryl ester receptor, LDL from healthy humans was used. Each of test compounds was added to be final concentrations of 16, 80, 400, 2000 and 10000 nM and tested in duplicate. In order to test cholesteryl ester transfer, 20 μl of plasma, 50 μl of LDL (0.25 mg/ml) and 50 μl of rHDL-agarose (0.25 mg/ml) were mixed with each other, and a solution of each test compound was added thereto and reacted thereto at 37° C. Then, the reaction solution was centrifuged at 4° C. for 3 minutes, thereby the reaction was stopped. 150 μl of the supernatant was transferred into a 96-well plate for radioactivity measurement, and the radioactivity thereof was measured with a beta-ray detector.
3. Statistical Processing
The ratio of [^3H]-cholesteryl oleate transferred from HDL to LDL was determined, and based on the determined ratio, the IC50 value of each compound was determined using GraphPad Prism 5.0.

| Compound | IC50 |
| --- | --- |
| COc1cc(F)c(OCC(F)(F)F)cc1C1=C(CN2C(=O)O[C@H](c3cc(C(F)(F)F)cc(C(F)(F)F)c3)[C@@H]2C)CC(C)(C)CC1 [Compound 222, (4S,5R)-5-(3,5-bis(trifluoromethyl)phenyl)-3-((2-(4-fluoro-2-methoxy-5-(2,2,2-trifluoroethoxy)phenyl)-5,5-dimethylcyclohex-1-enyl)methyl)-4-methyloxazolidin-2-one] | 40 nM |
| COc1cc2c(cc1C1=C(CN3C(=O)O[C@H](c4cc(C(F)(F)F)cc(C(F)(F)F)c4)[C@@H]3C)CC(C)(C)CC1)OCO2 [Compound 223, (4S,5R)-5-(3,5-bis(trifluoromethyl)phenyl)-3-((2-(6-methoxybenzo[d][1,3]dioxol-5-yl)-5,5-dimethylcyclohex-1-enyl)methyl)-4-methyloxazolidin-2-one] | 100 nM |
| COc1cc(C(F)(F)F)c(N(C)C(=O)C(F)(F)F)cc1C1=C(CN2C(=O)O[C@H](c3cc(C(F)(F)F)cc(C(F)(F)F)c3)[C@@H]2C)CC(C)(C)CC1 [Compound 227, N-(5-(2-(((4S,5R)-5-(3,5-bis(trifluoromethyl)phenyl)-4-methyl-2-oxooxazolidin-3-yl)methyl)-4,4-dimethylcyclohex-1-enyl)-4-methoxy-2-(trifluoromethyl)phenyl)-2,2,2-trifluoro-N-methylacetamide] | 140 nM |
| COc1cc(F)c(C(C)C)cc1C1=C(CN2C(=O)O[C@H](c3cc(C(F)(F)F)cc(C(F)(F)F)c3)[C@@H]2C)CN(C)CC1 [Compound 231, (4S,5R)-5-(3,5-bis(trifluoromethyl)phenyl)-3-((4-(4-fluoro-5-isopropyl-2-methoxyphenyl)-1-methyl-1,2,5,6-tetrahydropyridin-3-yl)methyl)-4-methyloxazolidin-2-one] | 700 nM |
| CCc1cc(OC)c(C2=C(CN3C(=O)O[C@H](c4cc(C(F)(F)F)cc(C(F)(F)F)c4)[C@@H]3C)CC(C)(C)CC2)cc1N(C)C(C)=O [Compound 234, N-(5-(2-(((4S,5R)-5-(3,5-bis(trifluoromethyl)phenyl)-4-methyl-2-oxooxazolidin-3-yl)methyl)-4,4-dimethylcyclohex-1-enyl)-2-ethyl-4-methoxyphenyl)-N-methylacetamide] | 20 nM |
| COc1cc(F)c(C2CC2)cc1C1=C(CN2C(=O)O[C@H](c3cc(C(F)(F)F)cc(C(F)(F)F)c3)[C@@H]2C)CC(C)(C)CC1 [Compound 237, (4S,5R)-5-(3,5-bis(trifluoromethyl)phenyl)-3-((2-(5-cyclopropyl-4-fluoro-2-methoxyphenyl)-5,5-dimethylcyclohex-1-enyl)methyl)-4-methyloxazolidin-2-one] | 9 nM |
| COc1cc(F)c(OC(C)C)cc1C1=C(CN2C(=O)O[C@H](c3cc(C(F)(F)F)cc(C(F)(F)F)c3)[C@@H]2C)CC(C)(C)CC1 [Compound 241, (4S,5R)-5-(3,5-bis(trifluoromethyl)phenyl)-3-((2-(4-fluoro-5-isopropoxy-2-methoxyphenyl)-5,5-dimethylcyclohex-1-enyl)methyl)-4-methyloxazolidin-2-one] | 390 nM |
| COc1ccc(N(C)C(=O)C(C)(C)OC(C)=O)cc1C1=C(CN2C(=O)O[C@H](c3cc(C(F)(F)F)cc(C(F)(F)F)c3)[C@@H]2C)CC(C)(C)CC1 [Compound 243, 1-((3-(2-(((4S,5R)-5-(3,5-bis(trifluoromethyl)phenyl)-4-methyl-2-oxooxazolidin-3-yl)methyl)-4,4-dimethylcyclohex-1-enyl)-4-methoxyphenyl)(methyl)amino)-2-methyl-1-oxopropan-2-yl acetate] | 9 nM |

More lines, now with the values ahead:

| IC50 | Compound |
| --- | --- |
| 20 nM | COc1ccc(N(C)C(=O)C(C)(C)O)cc1C1=C(CN2C(=O)O[C@H](c3cc(C(F)(F)F)cc(C(F)(F)F)c3)[C@@H]2C)CC(C)(C)CC1 [Compound 244, N-(3-(2-(((4S,5R)-5-(3,5-bis(trifluoromethyl)phenyl)-4-methyl-2-oxooxazolidin-3-yl)methyl)-4,4-dimethylcyclohex-1-enyl)-4-methoxyphenyl)-2-hydroxy-N,2-dimethylpropanamide] |
| 810 nM | COc1cc(F)c(C(C)C)cc1C1=C(CN2C(=O)O[C@H](c3cc(C(F)(F)F)cc(C(F)(F)F)c3)[C@@H]2C)CN(C(F)(F)F)CC1 [Compound 245, (4S,5R)-5-(3,5-bis(trifluoromethyl)phenyl)-3-((4-(4-fluoro-5-isopropyl-2-methoxyphenyl)-1-(trifluoromethyl)-1,2,5,6-tetrahydropyridin-3-yl)methyl)-4-methyloxazolidin-2-one] |
| 1 nM | COc1cc(C)c(N(C)C(C)=O)cc1C1=C(CN2C(=O)O[C@H](c3cc(C(F)(F)F)cc(C(F)(F)F)c3)[C@@H]2C)CC(C)(C)CC1 [Compound 249, N-(5-(2-(((4S,5R)-5-(3,5-bis(trifluoromethyl)phenyl)-4-methyl-2-oxooxazolidin-3-yl)methyl)-4,4-dimethylcyclohex-1-enyl)-4-methoxy-2-methylphenyl)-N-methylacetamide] |
| 690 nM | COc1cc(C)c(N(C)S(=O)(=O)C(F)(F)F)cc1C1=C(CN2C(=O)O[C@H](c3cc(C(F)(F)F)cc(C(F)(F)F)c3)[C@@H]2C)CC(C)(C)CC1 [Compound 251, N-(5-(2-(((4S,5R)-5-(3,5-bis(trifluoromethyl)phenyl)-4-methyl-2-oxooxazolidin-3-yl)methyl)-4,4-dimethylcyclohex-1-enyl)-4-methoxy-2-methylphenyl)trifluoro-N-methylmethanesulfonamide] |
| 164 nM | COc1cc(F)c(C(C)C)cc1C1=C(CN2C(=O)O[C@H](c3cc(C(F)(F)F)cc(C(F)(F)F)c3)[C@@H]2C)CN(C(C)C)CC1 [Compound 265, (4S,5R)-5-(3,5-bis(trifluoromethyl)phenyl)-3-((4-(4-fluoro-5-isopropyl-2-methoxyphenyl)-1-isopropyl-1,2,5,6-tetrahydropyridin-3-yl)methyl)-4-methyloxazolidin-2-one] |
| 46 nM | COc1cc(F)c(C(C)C)cc1C1=C(CN2C(=O)O[C@H](c3cc(C(F)(F)F)cc(C(F)(F)F)c3)[C@@H]2C)CN(CC(F)(F)F)CC1 [Compound 268, (4S,5R)-5-(3,5-bis(trifluoromethyl)phenyl)-3-((4-(4-fluoro-5-isopropyl-2-methoxyphenyl)-1-(2,2,2-trifluoroethyl)-1,2,5,6-tetrahydropyridin-3-yl)methyl)-4-methyloxazolidin-2-one] |
| 222 nM | COC(=O)CCc1ccc(OC)c(C2=C(CN3C(=O)O[C@H](c4cc(C(F)(F)F)cc(C(F)(F)F)c4)[C@@H]3C)CC(C)(C)CC2)c1 [Compound 272, methyl 3-(3-(2-(((4S,5R)-5-(3,5-bis(trifluoromethyl)phenyl)-4-methyl-2-oxooxazolidin-3-yl)methyl)-4,4-dimethylcyclohex-1-enyl)-4-methoxyphenyl)propanoate] |
| 217 nM | COc1ccc(CCC(=O)O)cc1C1=C(CN2C(=O)O[C@H](c3cc(C(F)(F)F)cc(C(F)(F)F)c3)[C@@H]2C)CC(C)(C)CC1 [Compound 273, 3-(3-(2-(((4S,5R)-5-(3,5-bis(trifluoromethyl)phenyl)-4-methyl-2-oxooxazolidin-3-yl)methyl)-4,4-dimethylcyclohex-1-enyl)-4-methoxyphenyl)propanoic acid] |
| 33 nM | COC(=O)C(C)(C)Cc1ccc(OC)c(C2=C(CN3C(=O)O[C@H](c4cc(C(F)(F)F)cc(C(F)(F)F)c4)[C@@H]3C)CC(C)(C)CC2)c1 [Compound 285, methyl 3-(3-(2-(((4S,5R)-5-(3,5-bis(trifluoromethyl)phenyl)-4-methyl-2-oxooxazolidin-3-yl)methyl)-4,4-dimethylcyclohex-1-enyl)-4-methoxyphenyl)-2,2-dimethylpropanoate] |
| 1 nM | COc1ccc(CCC#N)cc1C1=C(CN2C(=O)O[C@H](c3cc(C(F)(F)F)cc(C(F)(F)F)c3)[C@@H]2C)CC(C)(C)CC1 [Compound 300, 3-(3-(2-(((4S,5R)-5-(3,5-bis(trifluoromethyl)phenyl)-4-methyl-2-oxooxazolidin-3-yl)methyl)-4,4-dimethylcyclohex-1-enyl)-4-methoxyphenyl)propanenitrile] |
| 5 nM | COc1cc(F)c(C2(C)CC2)cc1C1=C(CN2C(=O)O[C@H](c3cc(C(F)(F)F)cc(C(F)(F)F)c3)[C@@H]2C)CC2(CC1)CC2 [Compound 303, (4S,5R)-5-(3,5-bis(trifluoromethyl)phenyl)-3-((6-(4-fluoro-2-methoxy-5-(1-methylcyclopropyl)phenyl)spiro[2.5]oct-5-en-5-yl)methyl)-4-methyloxazolidin-2-one] |
